Ten compounds from ChEMBL document CHEMBL1147742, “Design and synthesis of photoaffinity-labeling ligands of the L-prolyl-L-leucylglycinamide binding site involved in the allosteric modulation of the dopamine receptor” (J Med Chem, 2006) can be followed below.

The source made the active and inactive calls. No cut-off for these calls is given here. Where a SMILES comes first, the peptide text is derived from it.

Sequence of D(2) dopamine receptor (Bos taurus) (P20288 whole entry): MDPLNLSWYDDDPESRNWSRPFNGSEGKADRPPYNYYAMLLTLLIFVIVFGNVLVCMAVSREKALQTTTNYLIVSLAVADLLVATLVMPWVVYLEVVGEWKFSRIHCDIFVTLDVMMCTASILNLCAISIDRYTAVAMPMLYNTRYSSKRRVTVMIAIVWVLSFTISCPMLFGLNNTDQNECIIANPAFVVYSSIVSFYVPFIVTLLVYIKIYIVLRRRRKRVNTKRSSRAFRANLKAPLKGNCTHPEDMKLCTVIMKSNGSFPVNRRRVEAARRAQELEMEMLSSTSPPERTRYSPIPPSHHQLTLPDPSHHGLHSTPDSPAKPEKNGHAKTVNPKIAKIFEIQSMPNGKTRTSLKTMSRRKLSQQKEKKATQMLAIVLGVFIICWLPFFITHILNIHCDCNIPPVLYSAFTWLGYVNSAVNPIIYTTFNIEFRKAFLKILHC

The first test has as its target D(2) dopamine receptor (Bos taurus) (UniProt P20288). The test is described as follows: Stimulation of [3H]NPA binding to dopamine D2 receptor from bovine striatal membranes in presence of photoaffinity-labeling agents.
Conditions: not given
With `NC(=O)CN1CC[C@@H](NC(=O)[C@@H]2CCCN2)C1=O`, the result was inactive.
For `CC(C)C[C@H](NC(=O)[C@@H]1CCCN1)C(=O)NCC(N)=O` (H-Pro-Leu-Gly-NH2), the outcome was inactive.

Another test has the same target. The test is described as follows: Stimulation of [3H]NPA binding to dopamine D2 receptor in bovine striatal membranes. The test is classed as cell membranes. The conditions noted are these: Striatum, Membrane.
In the case of `[N-]=[N+]=Nc1ccc(C(=O)NCCNC(=O)CN2CC[C@@H](NC(=O)[C@@H]3CCCN3)C2=O)c(O)c1`, the result was Active.
With `[N-]=[N+]=Nc1ccc(C(=O)NCCNC(=O)CN2CC[C@@H](NC(=O)[C@@H]3CCCN3)C2=O)cc1`, the outcome was Active.
Turning to `[N-]=[N+]=Nc1cc(O)c(C(=O)NCCNC(=O)CN2CC[C@@H](NC(=O)[C@@H]3CCCN3)C2=O)cc1I`, the outcome was Active.
Still for that read-out and setting: the result for `[N-]=[N+]=Nc1ccc(C(=O)N[C@@H]2CN[C@H](C(=O)N[C@@H]3CCN(CC(N)=O)C3=O)C2)cc1` reads “Active”; that for `[N-]=[N+]=Nc1ccc(C(=O)N[C@@H]2CN[C@H](C(=O)N[C@@H]3CCN(CC(N)=O)C3=O)C2)c(O)c1`, “Active”.
On to `NC(=O)CN1CC[C@@H](NC(=O)[C@@H]2CCCN2)C1=O`, for which the Activity amounted to 51.1%.
Same read-out and setting: the result for `CC(C)C[C@H](NC(=O)[C@@H]1CCCN1)C(=O)NCC(N)=O` (H-Pro-Leu-Gly-NH2) reads 24.5%; that for `[N-]=[N+]=Nc1cc(O)c(C(=O)N[C@@H]2CN[C@H](C(=O)N[C@@H]3CCN(CC(N)=O)C3=O)C2)cc1I`, “Active”; that for `[N-]=[N+]=Nc1ccc(C(=O)N[C@H]2CN[C@H](C(=O)N[C@@H]3CCN(CC(N)=O)C3=O)C2)c(O)c1`, “Active”.
Same read-out and setting: the result for `[N-]=[N+]=Nc1ccc(C(=O)N[C@H]2CN[C@H](C(=O)N[C@@H]3CCN(CC(N)=O)C3=O)C2)cc1` reads “Active”.
